Test results as given in US7449474B2, “Tri-substituted ureas as cytokine inhibitors” (The Procter & Gamble Company, priority 2004, dated 2008).

Test system: TNF-α
Assay: Inhibition of TNF-α in lipopolysaccharide (LPS) stimulated human monocytic THP-1 cells
Type: cell-based
Settings: LPS (1 μg/mL) stimulated THP-1 cells, 4 hours incubation, human TNF-α by ELISA
Description: In addition, Tumor Necrosis Factor, TNF-α, inhibition can be measured by utilizing lipopolysaccharide (LPS) stimulated human monocytic cells (THP-1) as described in: • i) K. M. Mohler et al., “Protection Against a Lethal Dose of Endotoxin by an Inhibitor of Tumour Necrosis Factor Processing”, Nature, 370, pp 218-220 (1994). • ii) U.S. Pat. No. 6,297,381 B1 Cirillo et al., issued Oct. 2, 2001, incorporated by reference and reproduced herein below in relevant portion thereof.
The inhibition of cytokine production can be observed by measuring inhibition of TNF-α in lipopolysaccharide stimulated THP-1 cells. All cells and reagents are diluted in RPMI 1640 with phenol red and L-glutamine, supplemented with additional L-glutamine (total: 4 mM), penicillin and streptomycin (50 units/mL each) and fetal bovine serum (FBS 3%) (GIBCO, all conc. Final). Assay is performed under sterile conditions, only test compound preparation is non-sterile. Initial stock solutions are made in DMSO followed by dilution into RPMI 1640 2-fold higher than the desired final assay concentration. Confluent THP-1 cells ([…], final conc.; American Type Culture Company, Rockville, Md.) are added to 96 well polypropylene round bottomed culture plates (Costar 3790; sterile) containing 125 μL test compound (2-fold concentrated) or DMSO vehicle (controls, blanks). DMSO concentration should not exceed 0.2% final. Cell mixture is allowed to preincubate for 15 minutes at 37° C., 5% CO2 prior to stimulation with lipopolysaccharide (LPS, 1 μg/mL final; Sigma L-2630, from E. coli serotype 0111.B4; stored as 1 mg/mL stock in endotoxin screened diluted H2O vehicle at −80° C.). Blanks (unstimulated) receive H2O vehicle; final incubation volume is 250 μL. Incubation (4 hours) proceeds as described above. Assay is to be terminated by centrifuging plates 5 minutes at room temperature, 1600 rpm ([…]); supernatants are then transferred to clean 96 well plates and stored at −80° C. until analyzed for human TNF-α by a commercially available ELISA kit (Biosource #KHC3015, Camarillo, Calif.). The calculated IC50 value is the concentration of the test compound that caused a 50% decrease in the maximal TNF-α production.

IC50 [µM]	SMILES
0.03	CCNC(=O)N(c1ccc(F)cc1)c1ccnc(N[C@@H](C)C(C)(C)O)n1 [1-(4-Fluorophenyl)-1-{2-[(1S)-2-hydroxy-1,2-dimethyl-propylamino]-pyrimidin-4-yl}-3-ethyl-urea]
0.026	CCNC(=O)N(c1ccc(SC)cc1)c1ccnc(N[C@@H](C)COC)n1 [1-(4-Methylsulfanylphenyl)-1-{2-[(1S)-2-methoxy-1-methyl-ethylamino]-pyrimidin-4-yl}-3-ethyl-urea]
0.016	CCNC(=O)N(c1ccc(OC)cc1)c1ccnc(N[C@@H](C)C(C)(C)O)n1 [1-(4-Methoxyphenyl)-1-{2-[(1S)-2-hydroxy-1,2-dimethyl-propylamino]-pyrimidin-4-yl}-3-ethyl-urea]
0.324	CCCCNC(=O)N(c1ccc(OC)cc1)c1ccnc(N[C@@H](C)COC)n1 [1-(4-Methoxyphenyl)-1-{2-[(1S)-2-methoxy-1-methyl-ethylamino]-pyrimidin-4-yl}-3-butyl-urea]
0.028	CCNC(=O)N(c1ccc(F)cc1)c1ccnc(NC(C)C)n1 [1-(4-Fluorophenyl)-1-[2-(iso-propylamino)-pyrimidin-4-yl]-3-ethyl-urea]
0.666	CCNC(=O)N(c1ccc(OC)cc1)c1ccnc(N[C@@H](C)COC)n1 [1-(4-Methoxyphenyl)-1-{2-[(1S)-2-methoxy-1-methyl-ethylamino]-pyrimidin-4-yl}-3-ethyl-urea]
0.086	CCNC(=O)N(c1ccc(F)cc1)c1ccnc(NC2CCOCC2)n1 [1-(4-Fluorophenyl)-1-[2-(tetrahydro-pyran-4-ylamino)-pyrimidin-4-yl]-3-ethyl-urea]
0.276	CCNC(=O)N(c1ccc(OCC)cc1)c1ccnc(N[C@@H](C)COC)n1 [1-(4-Ethoxyphenyl)-1-{2-[(1S)-2-methoxy-1-methyl-ethylamino]-pyrimidin-4-yl}-3-ethyl-urea]
